Values quoted from earlier work, collected in patent US6258550A, “Polypeptides that include conformation-constraining groups which flank a protein-protein interaction site” (Virginia Commonwealth University, priority 1999, dated 2001).
Where a SMILES comes first, the peptide text is derived from it.

Tested on: receptors of sweet tasting papillae
Settings: comparison sweetener

## COC(=O)[C@H](Cc1ccccc1)NC(=O)[C@@H](N)CC(=O)O [aspartame] (H-Asp-Phe-OMe)
  Sweetness relative to sugar: 160 times sweeter than sugar
